One assay deals with Bcl2. The assay can be described thus: Bcl2 protein expression in Aβ-treated SH-SY5Y cells, western blot. To be noted: Aβ (1-42) 1 μg/mL, 24 hours, 10^−7 M. The format is cell-based, human. As to the method: (§1) Glial cells (C6) were cultured in 10% FBS supplemented DMEM, and SHY-5SY were cultured in 10% FBS supplemented RPMI. Neuronal cells were differentiated with retinoic acid. After 24 hours of starvation glial cells and SHY-5SY were treated with CBDV (10^−7M), CBD (10^−7 M), CBDVA (10^−7 M), CBDA (10^−7 M) and THCVA (10^−7 M) in presence or absence of Aβ (1-42) (1 μg/mL) for following 24 hours.
(§2) Western blot analysis was performed on C6 and SHY-5SY cell lysate. Briefly cells were rapidly homogenized in 60 μl of ice-cold hypotonic lysis buffer [10 mM HEPES, 1.5 mM MgCl2, 10 mM KCl, 0.5 mM phenylmethylsulfonyl fluoride, 1.5 μg/mL soybean trypsin inhibitor, pepstatin A 7 μg/mL, leupeptin 5 μg/mL, 0.1 mM benzamidine, 0.5 mM dithiothreitol (DTT)]. After this time, the cytoplasmic fractions were then obtained by centrifugation at 13000 g for 10 min and protein concentration in the samples was determined with Bio-Rad assay kit according to the manufacturer's instructions. Immunoblotting analysis of iNOS, COX-2, TNF-a, Bcl2 and actin were performed on a cytosolic fraction. Protein concentration was determined and equivalent amounts (50 μg) of each sample were separated under reducing conditions in 12% SDS-polyacrylamide minigel. […] The protein bands were scanned and densitometrically analyzed with a GS-800 imaging densitometer (Bio-Rad Laboratories, Calif., USA).
(Immunoblotting shows a protein as a band on a membrane.)

Assay [1] relates to SH-SY5Y cells. The assay can be described thus: Aβ-induced SH-SY5Y cell viability, MTT/formazan test (Example 2). It counts as cell-based, human. To be noted: Aβ (1-42) 1 μg/mL, 24 hours; 10^−7 M. As for the experimental part:
as §1
(§3) Cell activation/viability was determined using 3(4,5-dimethylthiazol-2yl)2,5-diphenyl-2H-tetrazolium bromide (MTT) assay, an assay based on the ability of viable cells to convert MTT in formazan salt. Briefly, the cells were plated in 96-well culture plates at the density of 5×10^3 cells/well and allowed to adhere at 37° C. for 2 hours. Thereafter, the medium was replaced with fresh medium and the cells were treated as above described. After 24 hours 25 μl MTT (5 mg/ml in DMEM) was added to the cells and incubated for additional 3 hours at 37° C. After this time, the cells were lysed and the dark blue crystals solubilized with 125 μl of a solution containing 50% (v/v) N,N, dimethylformamide, 20% (w/v) sodium dodecylsulphate, with an adjusted pH of 4.5. The optical density of each well was measured with a microplate spectrophotometer (Titertek Multiscan MCC/340) equipped with a 620 nm filter.

For assay [2], the system named is Aβ-stimulated C6 cells. The assay is described as follows: Nitrite (NO) production in Aβ-stimulated C6 cells, Griess reaction. The format is cell-based. Particulars: Aβ (1-42) 1 μg/mL, 24 hours; cannabinoid 10^−9 to 10^−6 M. As to the method: (§4) The cannabinoids tested were CBG, CBC, and CBDV. The cannabinoids were isolated from cannabis plant material and purified. The cannabinoids were tested at a concentration of 10^−9 to 10^−6 M. The cannabinoids were dissolved in DMSO at the concentration of 10^−2M and then diluted in DMEM to their final concentration.
(§5) Glial cells (C6) were cultured in 10% FBS supplemented DMEM. PC12 neuronal cell were cultured in 10% FBS plus 5% HS supplemented DMEM and SHY-5SY neuronal cells were cultured in 10% FBS supplemented RPMI. Neuronal cells were differentiated with retinoic acid. After 24 hours of starvation glial cells, differentiated PC12 and SHY-5SY neuronal cells were treated with the cannabinoids, CBC, CBG and CBDV, in the presence or absence of 1 μg/mL of Aβ (1-42) for the following 24 hours.
Production of NO was assayed by measuring the amount of nitrite in the culture medium of C6 cells 24 hours after Aβ(1-42) (1 μg/mL) stimulation using a spectrophotometric assay based on Griess reaction.
For orientation: Nitrite, measured by Griess reagent, commonly stands in for NO production.

In a further assay the test system is COX2. The assay is described as follows: COX2 protein expression in Aβ-stimulated C6 cells, western blot. The format is cell-based. Particulars: Aβ (1-42) 1 μg/mL, 24 hours, 10^−7 M. As for the experimental part:
as §1, §2

The subject of assay [3] is SH-SY5Y cells. The assay can be described thus: Aβ-induced SH-SY5Y viable cell number, cell counting by TC10 System. The format is cell-based, human. Particulars: Aβ (1-42) 1 μg/mL, 24 hours; 10^−7 M. As for the experimental part:
as §1
In another set of experiments cell counting was performed by TC10 System (BIO-RAD), according to manufacturing instruction.

Assay [4] concerns Aβ-stimulated C6 cells. The assay is described as follows: Aβ-stimulated C6 cell viability/proliferation, MTT assay. The format is cell-based. Particulars: Aβ (1-42) 1 μg/mL, 24 hours. As to the method: as §4, §5
(§6) Cell viability was determined using 3(4,5-dimethylthiazol-2yl)2,5-diphenyl-2H-tetrazolium bromide (MTT) assay which is an assay based on the ability of viable cells to convert MTT in formazan salt.
as §3, with “The” for “Cell activation/viability was determined using 3(4,5-dimethylthiazol-2yl)2,5-diphenyl-2H-tetrazolium bromide (MTT) assay, an assay based on the ability of viable cells to convert MTT in formazan salt. Briefly, the”
In general terms: Tetrazolium dyes change colour on reduction, which living cells bring about.

Assay [5] has as its system iNOS. The assay can be described thus: iNOS mRNA level in Aβ-stimulated C6 cells, semi-quantitative RT-PCR. The format is cell-based. Particulars: Aβ (1-42) 1 μg/mL, 24 hours; 10^−7 M. As to the method: as §5
The mRNA level of iNOS in C6 cells was determined using the semi-quantitative RT-PCR method. The PCR-primers were selected according to appropriate DNA sequences. 15 μl aliquots of PCR products were electrophoretically fractionated through 1% agarose gel containing the fluorescent Vistra green dye. Labelling intensity of the PCR product, which is linear to the amount of DNA, was quantified using the Molecular Imager FX and Quantity One software (Biorad, Milan, Italy).

Assay [6] has as its system iNOS. The assay is described as follows: iNOS protein expression in Aβ-stimulated C6 cells, western blot. It counts as cell-based. Particulars: Aβ (1-42) 1 μg/mL, 24 hours, 10^−7 M. As to the method: as §1, §2
The test system of assay [7] is TNF-alpha. The assay is described as follows: TNF-alpha release in supernatant of Aβ-treated C6 cells, ELISA. Particulars: Aβ (1-42) 1 μg/mL, 24 hours, 10^−7 M. It counts as cell-based. As to the method: as §1
ELISA essay was performed on supernatants of cultured cells. Nunc Maxisorp 96-well microtiter plates (Gibco, Paisley, UK) were coated overnight at 4° C. with 1 μg/well of specific monoclonal antibody anti-TNF, diluted in 0.5 M Na2CO3. The wells were washed three times and then blocked with phosphate-buffered saline (PBS) containing 0.05% (v/v) Tween 20 and 0.3% Fetal Bovine Serum (ELISA buffer) for 30 min at room temperature. The standards and samples were added in a 100-μl volume and incubated at 37° C. for 1.5 h. The standard curve was generated using 0.1 ng to 1 μg/well of purified protein, diluted in ELISA buffer. Following four washes in ELISA buffer, monoclonal antibodies were diluted and added to the wells for 1 h. […] The colour reaction was stopped by addition of HCl and optical densities at 490 nm were measured using a microplate reader.

The test system of assay [8] is TNF-alpha. The assay can be described thus: TNF-alpha protein expression in Aβ-stimulated C6 cells, western blot. The format is cell-based. Particulars: Aβ (1-42) 1 μg/mL, 24 hours, 10^−7 M. As to the method:
as §1, §2

In assay [9] the test system is SH-SY5Y cells. The assay can be described thus: Aβ-induced SH-SY5Y cell viability, MTT assay (Example 1). It counts as cell-based, human. To be noted: Aβ (1-42) 1 μg/mL. As for the experimental part:
as §4, §5, §6
as §3, with “The” for “Cell activation/viability was determined using 3(4,5-dimethylthiazol-2yl)2,5-diphenyl-2H-tetrazolium bromide (MTT) assay, an assay based on the ability of viable cells to convert MTT in formazan salt. Briefly, the”

The test system of assay [10] is neuronal cultures exposed to glutamate. To be noted: in vitro, pure/synthetic preparations; cited from earlier work.
The conditions of assay [11]: in vivo, pure CBD; cited from earlier work.

We go through 8 compounds from patent US10258580B2, “Cannabinoids for use in the treatment of neurodegenerative diseases or disorders” (priority 2011, dated 2019).

Structures are written as SMILES.

Consider `C=C(C)[C@@H]1CCC(C)=C[C@H]1c1c(O)cc(CCC)cc1O` [CBDV, cannabidivarin], for which the Bcl2 protein expression result in the assay with Bcl2 is recorded as “significantly restored”. Further, in the assay on SH-SY5Y cells [1], the “Aβ SH-SY5Y cell death (viability, MTT/formazan test)” value is “able to prevent”. For the same compound, in the assay with Aβ-stimulated C6 cells [2], the “nitrite production in Aβ-stimulated C6 cells” value (“nitrite production” for short) is given as “significantly reduced”. Further, the COX2 protein expression entry in the assay on COX2 is “significant reduction”. In addition, in the assay on SH-SY5Y cells [3], the “Aβ induced SH-SY5Y cell death (viable cell number, cell counting)” value (shortened to “Aβ induced SH-SY5Y cell death”) was “able to prevent”. For the same compound, the “Aβ-stimulated C6 cell viability (cell proliferation, MTT)” value (shortened to “Aβ-stimulated C6 cell viability”) in the assay on Aβ-stimulated C6 cells [4] (10^−8 to 10^−6 M) is “significantly inhibited cell proliferation”. Moreover, the “iNOS mRNA transcription in Aβ-stimulated C6 cells” value in the assay on iNOS [5] is given as “significant reduction of mRNA transcription”. Further, in the assay with iNOS [6], the iNOS protein expression entry was “significant reduction”. Further, the “TNF-alpha release in the supernatant of cells” value in the assay on TNF-alpha [7] is on record as “significantly reduced”. The TNF-alpha protein expression result in the assay on TNF-alpha [8] is “significant reduction”. Further, the “Aβ-induced SH-SY5Y cell death (cell viability, MTT)” value (“Aβ-induced SH-SY5Y cell death” for short) in the assay on SH-SY5Y cells [9] (10^−9 to 10^−6 M) was “able to prevent”.
For the compound `C=C(C)[C@@H]1CCC(C)=C[C@H]1c1c(O)cc(CCCCC)cc1O` [CBD, cannabidiol], the “prevention of glutamate toxicity” value in assay [10] is given as “could be prevented to some extent”. Further, the “Aβ SH-SY5Y cell death (viability, MTT/formazan test)” value in the assay with SH-SY5Y cells [1] is reported as “able to prevent”. Besides, the “Aβ induced SH-SY5Y cell death” value in the assay on SH-SY5Y cells [3] is recorded as “able to prevent”. Moreover, the “difference between treated and placebo treated animals” value in assay [11] is listed as “failed to find a difference”.
As for `CCCc1cc2c(c(O)c1C(=O)O)[C@@H]1C=C(C)CC[C@H]1C(C)(C)O2` [THCVA], the “Aβ SH-SY5Y cell death (viability, MTT/formazan test)” value in the assay with SH-SY5Y cells [1] was “had no effect”. For the same compound, in the assay with SH-SY5Y cells [3], the “Aβ induced SH-SY5Y cell death” value is “No significant effect”.
The corresponding values for `C=C(C)[C@@H]1CCC(C)=C[C@H]1c1c(O)cc(CCCCC)c(C(=O)O)c1O` [CBDA] are “had no effect” and “No significant effect”.
The corresponding values for `C=C(C)[C@@H]1CCC(C)=C[C@H]1c1c(O)cc(CCC)c(C(=O)O)c1O` [CBDVA, cannabidivarin acid] are “able to prevent” and “able to prevent”.
`CCCCCc1cc(O)c(C/C=C(\C)CCC=C(C)C)c(O)c1` [CBG, cannabigerol, reference compound]: the “nitrite production” value in the assay on Aβ-stimulated C6 cells [2] is on record as “had no effect”. Also, the “Aβ-stimulated C6 cell viability” value in the assay with Aβ-stimulated C6 cells [4] (10^−9 to 10^−6 M) is given as “had no effect”. Besides, the “Aβ-induced SH-SY5Y cell death” value with SH-SY5Y cells [9] (10^−9 to 10^−6 M) is listed as “had no effect”.
Turning to `CCCCCc1cc(O)c2c(c1)OC(C)(C)[C@@H]1CCC(C)=C[C@@H]21` [THC, tetrahydrocannabinol], in assay [10], the “prevention of glutamate toxicity” value was “could be prevented to some extent”.
With `CCCCCc1cc(O)c2c(c1)OC(C)(CCC=C(C)C)C=C2` (stereo not shown) [CBC, cannabichromene], the “nitrite production” value with Aβ-stimulated C6 cells [2] was “significantly reduced”. Further, the “Aβ-stimulated C6 cell viability” value in the assay with Aβ-stimulated C6 cells [4] (10^−7 to 10^−6 M) is recorded as “significantly inhibited cell proliferation”. Besides, the “Aβ-induced SH-SY5Y cell death” value with SH-SY5Y cells [9] (10^−6 M (highest concentration used)) is given as “effective only at the highest concentration used”.
